Tests used:
Rattus norvegicus [1] = experiment: Antialzheimer activity in CD rat assessed as reduction in amyloid beta42 level in plasma administered as po for 6 days by alphaLISA analysis relative to total amyloid beta40 level; type: functional, organism-based
Rattus norvegicus [2] = species: Rattus norvegicus; experiment: Toxicity in rat assessed as effect on adipsin expression in jejunum at highest tolerable dose; type: organism-based; settings: in vivo
[3] = Permeability from apical to basolateral side of human Caco2 cells; type: ADME, cell-based; settings: Caco-2, read-out: permeability
Rattus norvegicus [4] = experiment: Antialzheimer activity in CD rat assessed as reduction in amyloid beta42 level in CSF administered as po for 6 days by alphaLISA analysis relative to total amyloid beta level; type: functional, organism-based
[5] = Half life in dog at 3 mg/kg, iv; type: ADME, organism-based, Canis lupus familiaris; set-up: dose 3 mg/kg, route intravenous; settings: in vivo
[6] = Clearance in monkey at 3 mg/kg, iv; type: ADME, organism-based, Macaca mulatta; set-up: dose 3 mg/kg, route intravenous; settings: rhesus monkey, in vivo
[7] = Clearance in rat at 3 mg/kg, iv; type: ADME, organism-based; set-up: dose 3 mg/kg, route intravenous; settings: in vivo
[8] = Volume of distribution at steady state in dog at 3 mg/kg, iv; type: ADME, organism-based, Canis lupus familiaris; set-up: dose 3 mg/kg, route intravenous; settings: in vivo, read-out: Vdss
[9] = Cmax in monkey at 10 mg/kg, po; type: ADME, organism-based, Macaca mulatta; set-up: dose 10 mg/kg, route oral; settings: rhesus monkey, in vivo
Rattus norvegicus [10] = experiment: Antialzheimer activity in po dosed CD rat assessed as reduction in amyloid beta42 level in cortex after 3 hrs by alphaLISA analysis relative to total amyloid beta level; type: functional, organism-based
[11] = Volume of distribution at steady state in rat at 3 mg/kg, iv; type: ADME, organism-based; set-up: dose 3 mg/kg, route intravenous; settings: in vivo, read-out: Vdss
[12] = Volume of distribution at steady state in monkey at 3 mg/kg, iv; type: ADME, organism-based, Macaca mulatta; set-up: dose 3 mg/kg, route intravenous; settings: rhesus monkey, in vivo, read-out: Vdss
[13] = AUC in dog at 10 mg/kg, po; type: ADME, organism-based, Canis lupus familiaris, Plasma; set-up: dose 10 mg/kg, route oral; settings: plasma
Rattus norvegicus [14] = experiment: Antialzheimer activity in CD rat assessed as reduction in amyloid beta42 level in cortex at 10 mg/kg, po after 3 hrs by alphaLISA analysis; type: functional; set-up: scale not given: the % may be the effect or the level left
Rattus norvegicus [15] = experiment: Antialzheimer activity in CD rat assessed as reduction in total amyloid beta level in plasma at 10 mg/kg, po after 3 hrs by alphaLISA analysis; type: functional; set-up: scale not given: the % may be the effect or the level left
Rattus norvegicus [16] = experiment: Antialzheimer activity in po dosed CD rat assessed as reduction in amyloid beta42 level in CSF after 3 hrs by alphaLISA analysis relative to total amyloid beta level; type: functional, organism-based
[17] = Oral bioavailability in dog at 10 mg/kg; type: ADME, organism-based, Canis lupus familiaris; settings: in vivo
Rattus norvegicus [18] = species: Rattus norvegicus; experiment: Toxicity in rat assessed as decrease in thymus size at highest tolerable dose; type: organism-based; settings: in vivo
Rattus norvegicus [19] = experiment: Antialzheimer activity in CD rat assessed as reduction in amyloid beta42 level in plasma at 10 mg/kg, po after 3 hrs by alphaLISA analysis; type: functional; set-up: scale not given: the % may be the effect or the level left
Canis familiaris = species: Canis familiaris; experiment: Cardiotoxicity in dog assessed as effect on electrocardiographic QTc interval at compound concentration required for pharmacological effect; type: toxicity, organism-based, Canis lupus familiaris; settings: in vivo
Rattus norvegicus [20] = experiment: Antialzheimer activity in po dosed CD rat assessed as reduction in amyloid beta42 level in plasma after 3 hrs by alphaLISA analysis relative to amyloid beta40 level; type: functional, organism-based
Rattus norvegicus [21] = experiment: Antialzheimer activity in CD rat assessed as reduction in amyloid beta42 level in CSF administered as po for 6 days by alphaLISA analysis relative to total amyloid beta40 level; type: functional, organism-based
Rattus norvegicus [22] = experiment: Antialzheimer activity in po dosed CD rat assessed as reduction in amyloid beta42 level in plasma after 3 hrs by alphaLISA analysis relative to total amyloid beta level; type: functional, organism-based
[23] = Plasma concentration in CD rat at 10 mg/kg, po after 3 hrs; type: ADME, organism-based; set-up: dose 10 mg/kg, route oral
[24] = AUC in monkey at 10 mg/kg, po; type: ADME, organism-based, Macaca mulatta; set-up: dose 10 mg/kg, route oral; settings: rhesus monkey, plasma
Rattus norvegicus [25] = experiment: Antialzheimer activity in CD rat assessed as reduction in amyloid beta42 level in cortex administered as po for 6 days by alphaLISA analysis relative to total amyloid beta level; type: functional, organism-based
Rattus norvegicus [26] = experiment: Antialzheimer activity in CD rat assessed as reduction in amyloid beta42 level in cortex administered as po for 6 days by alphaLISA analysis relative to total amyloid beta40 level; type: functional, organism-based
Rattus norvegicus [27] = species: Rattus norvegicus; experiment: Toxicity in rat assessed as production of goblet cell meta/hyperplasia in ileum at highest tolerable dose; type: organism-based; settings: in vivo
[28] = Cmax in dog at 10 mg/kg, po; type: ADME, organism-based, Canis lupus familiaris; set-up: dose 10 mg/kg, route oral; settings: in vivo
Gamma-secretase [29] = experiment: Modulation of gamma-secretase-mediated cleavage of human APP Swedish and London mutation expressed in HEK293 cells assessed as inhibition of amyloid beta42 production after 5 hrs by sandwich immunoassay; type: cell-based
Rattus norvegicus [30] = experiment: Antialzheimer activity in CD rat assessed as reduction in amyloid beta40 level in plasma at 10 mg/kg, po after 3 hrs by alphaLISA analysis; type: functional; set-up: scale not given: the % may be the effect or the level left
Rattus norvegicus [31] = experiment: Antialzheimer activity in CD rat assessed as reduction in total amyloid beta level in CSF at 10 mg/kg, po after 3 hrs by alphaLISA analysis; type: functional; set-up: scale not given: the % may be the effect or the level left
Rattus norvegicus [32] = experiment: Antialzheimer activity in po dosed CD rat assessed as reduction in amyloid beta42 level in cortex after 3 hrs by alphaLISA analysis relative to amyloid beta40 level; type: functional, organism-based
Gamma-secretase [33] = experiment: Modulation of gamma-secretase-mediated cleavage of human APP Swedish and London mutation expressed in HEK293 cells assessed as inhibition of amyloid beta40 production after 5 hrs by sandwich immunoassay; type: cell-based
Rattus norvegicus [34] = species: Rattus norvegicus; experiment: Toxicity in rat assessed as decrease in body weight at highest tolerable dose; type: organism-based; settings: in vivo
[35] = Oral bioavailability in monkey at 10 mg/kg; type: ADME, organism-based, Macaca mulatta; settings: rhesus monkey, in vivo
[36] = Half life in rat at 3 mg/kg, iv; type: ADME, organism-based; set-up: dose 3 mg/kg, route intravenous; settings: in vivo
Gamma-secretase [37] = experiment: Modulation of gamma-secretase-mediated notch signaling in HEK293 cells transfected with human APP Swedish and London mutation and Notch1 with truncated extracellular EGF repeat domain assessed as production of notch intracellular domain by MSD-based sandwich immunoassay; type: cell-based
Gamma-secretase [38] = experiment: Modulation of gamma-secretase-mediated cleavage of human APP Swedish and London mutation expressed in HEK293 cells assessed as reduction of total amyloid beta level after 5 hrs by sandwich immunoassay; type: cell-based
Rattus norvegicus [39] = experiment: Antialzheimer activity in CD rat assessed as reduction in amyloid beta40 level in cortex at 10 mg/kg, po after 3 hrs by alphaLISA analysis; type: functional; set-up: scale not given: the % may be the effect or the level left
[40] = Ratio of drug level in brain to plasma in CD rat at 10 mg/kg, po after 3 hrs; type: ADME, organism-based; set-up: dose 10 mg/kg, route oral; settings: read-out: BPR
Rattus norvegicus [41] = experiment: Antialzheimer activity in CD rat assessed as reduction in amyloid beta40 level in CSF at 10 mg/kg, po after 3 hrs by alphaLISA analysis; type: functional; set-up: scale not given: the % may be the effect or the level left
[42] = Oral bioavailability in rat at 10 mg/kg; type: ADME, organism-based; settings: in vivo
[43] = Clearance in dog at 3 mg/kg, iv; type: ADME, organism-based, Canis lupus familiaris; set-up: dose 3 mg/kg, route intravenous; settings: in vivo
[44] = Cmax in rat at 10 mg/kg, po; type: ADME, organism-based; set-up: dose 10 mg/kg, route oral; settings: in vivo
Rattus norvegicus [45] = experiment: Antialzheimer activity in CD rat assessed as reduction in amyloid beta42 level in plasma administered as po for 6 days by alphaLISA analysis relative to total amyloid beta level; type: functional, organism-based
[46] = Half life in monkey at 3 mg/kg, iv; type: ADME, organism-based, Macaca mulatta; set-up: dose 3 mg/kg, route intravenous; settings: rhesus monkey, in vivo
Rattus norvegicus [47] = experiment: Antialzheimer activity in CD rat assessed as reduction in amyloid beta42 level in CSF at 10 mg/kg, po after 3 hrs by alphaLISA analysis; type: functional; set-up: scale not given: the % may be the effect or the level left
[48] = AUC in rat at 10 mg/kg, po; type: ADME, organism-based, Plasma; set-up: dose 10 mg/kg, route oral; settings: plasma
Rattus norvegicus [49] = species: Rattus norvegicus; experiment: Toxicity in rat assessed as effect on HES-1 expression in jejunum at highest tolerable dose; type: organism-based; settings: in vivo
Rattus norvegicus [50] = experiment: Antialzheimer activity in po dosed CD rat assessed as reduction in amyloid beta42 level in CSF after 3 hrs by alphaLISA analysis relative to amyloid beta40 level; type: functional, organism-based

Compound: COc1cc(/C=C2\CCCN3C2=NO[C@]3(CO)c2ccc(F)cc2)ccc1-n1cnc(C)c1
- Activity (Rattus norvegicus [1]): Dose-dependent effect
- Activity (Rattus norvegicus [2]): Non-toxic
- Papp A→B [3]: 30.2 ×10⁻⁶ cm/s
- Activity (Rattus norvegicus [4]): Dose-dependent effect
- half-life [5]: 84 min
- clearance [6]: 6 mL/min/kg
- clearance [7]: 6.1 mL/min/kg
- Vd [8]: 0.4 L/kg
- Cmax [9]: 8.8 µM
- Activity (Rattus norvegicus [10]): Dose-dependent effect
- Vd [11]: 1.6 L/kg
- Vd [12]: 1.4 L/kg
- AUC [13]: 26 µM·h
- Activity (Rattus norvegicus [14]): 37%
- Activity (Rattus norvegicus [15]): 77%
- Activity (Rattus norvegicus [16]): Dose-dependent effect
- bioavailability [17]: 38%
- Activity (Rattus norvegicus [18]): Non-toxic
- Activity (Rattus norvegicus [19]): 41%
- Activity (Canis familiaris): Non-toxic
- Activity (Rattus norvegicus [20]): Dose-dependent effect
- Activity (Rattus norvegicus [21]): Dose-dependent effect
- Activity (Rattus norvegicus [22]): Dose-dependent effect
- concentration at 3 h [23]: 3.6 µM
- AUC [24]: 30 µM·h
- Activity (Rattus norvegicus [25]): Dose-dependent effect
- Activity (Rattus norvegicus [26]): Dose-dependent effect
- Activity (Rattus norvegicus [27]): Non-toxic
- Cmax [28]: 4 µM
- IC50 (Gamma-secretase [29]): 29 nM
- Activity (Rattus norvegicus [30]): 44%
- Activity (Rattus norvegicus [31]): 120%
- Activity (Rattus norvegicus [32]): Dose-dependent effect
- IC50 (Gamma-secretase [33]): 170 nM
- Activity (Rattus norvegicus [34]): Non-toxic
- bioavailability [35]: 48%
- half-life [36]: 204 min
- IC50 (Gamma-secretase [37]): > 50 µM
- IC50 (Gamma-secretase [38]): 14.1 µM
- Activity (Rattus norvegicus [39]): 77%
- Kp at 3 h [40]: 0.15
- Activity (Rattus norvegicus [41]): 104%
- bioavailability [42]: 98%
- clearance [43]: 5 mL/min/kg
- Cmax [44]: 7.5 µM
- Activity (Rattus norvegicus [45]): Dose-dependent effect
- half-life [46]: 180 min
- Activity (Rattus norvegicus [47]): 66%
- AUC [48]: 61 µM·h
- Activity (Rattus norvegicus [49]): Non-toxic
- Activity (Rattus norvegicus [50]): Dose-dependent effect

Reference: ChEMBL document CHEMBL1949526, “Cyclic hydroxyamidines as amide isosteres: discovery of oxadiazolines and oxadiazines as potent and highly efficacious γ-secretase modulators in vivo” (J Med Chem, 2012)
